Measurements published in US20080009418A1, “Selective Inhibitors” (Alchemia LTD., priority 2004, published 2008).

Assays:
Conditions in all cases: compound at 10 μM
Human Melanocortin (MC4) = molecular target: T1, Human Melanocortin (MC4) (Homo sapiens, UniProt P32245); assay: Radioligand binding, human melanocortin MC4 membranes, FlashPlate, [125I]-NDP-αMSH
T1 construct: purchased Perkin Elmer Biosignal
Summary of the method: (§1)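 Cloned human receptor membranes were coated onto FlashPlate wells and incubated with radioligand and compound (added from a 0.5 mM DMSO daughter plate) for 1 hour at room temperature in the dark. Scintillation counting gave percent inhibition, with DMSO defining total and reference ligand defining non-specific binding.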

Human μ-opioid (MOP) = molecular target: T2, Human μ-opioid (MOP) (Homo sapiens, UniProt P35372); assay: Radioligand binding, human μ-opioid (MOP) membranes, FlashPlate, [3H]-Naloxone
T2 construct: purchased Perkin Elmer Biosignal
T2 sequence (P35372 whole entry): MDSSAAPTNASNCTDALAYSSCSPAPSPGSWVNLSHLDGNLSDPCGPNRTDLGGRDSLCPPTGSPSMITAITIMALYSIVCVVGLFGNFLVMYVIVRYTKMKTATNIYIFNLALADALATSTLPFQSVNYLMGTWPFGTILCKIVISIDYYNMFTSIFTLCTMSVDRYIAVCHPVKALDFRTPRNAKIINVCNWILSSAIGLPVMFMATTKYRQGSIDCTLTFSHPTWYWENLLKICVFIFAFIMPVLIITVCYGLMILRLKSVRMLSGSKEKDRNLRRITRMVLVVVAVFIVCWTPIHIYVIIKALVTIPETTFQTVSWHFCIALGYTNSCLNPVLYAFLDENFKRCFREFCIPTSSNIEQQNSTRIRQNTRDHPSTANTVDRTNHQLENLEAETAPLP
Summary of the method: as §1

Human Melanocortin (MC3) = molecular target: T3, Human Melanocortin (MC3) (Homo sapiens, UniProt P41968); assay: Radioligand binding, human melanocortin MC3 membranes, FlashPlate, [125I]-NDP-αMSH
T3 construct: purchased Perkin Elmer Biosignal
T3 sequence (P41968 whole entry): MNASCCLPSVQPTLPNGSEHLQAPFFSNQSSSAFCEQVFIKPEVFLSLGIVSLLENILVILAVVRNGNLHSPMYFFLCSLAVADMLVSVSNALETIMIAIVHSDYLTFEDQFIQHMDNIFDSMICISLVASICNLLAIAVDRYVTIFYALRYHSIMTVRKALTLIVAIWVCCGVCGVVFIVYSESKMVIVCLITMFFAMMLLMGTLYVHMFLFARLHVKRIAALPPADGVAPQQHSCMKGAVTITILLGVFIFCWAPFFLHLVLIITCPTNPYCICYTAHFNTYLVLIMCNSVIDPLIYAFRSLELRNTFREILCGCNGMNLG
Summary of the method: as §1

Mouse urotensin (mUR2) = molecular target: T4, Mouse urotensin (mUR2) (Mus musculus, UniProt Q8VIH9); assay: Radioligand binding, mouse urotensin mUR2 membranes, FlashPlate, [125I]-Urotensin II
T4 construct: purchased Perkin Elmer Biosignal
T4 sequence (Q8VIH9 1-385): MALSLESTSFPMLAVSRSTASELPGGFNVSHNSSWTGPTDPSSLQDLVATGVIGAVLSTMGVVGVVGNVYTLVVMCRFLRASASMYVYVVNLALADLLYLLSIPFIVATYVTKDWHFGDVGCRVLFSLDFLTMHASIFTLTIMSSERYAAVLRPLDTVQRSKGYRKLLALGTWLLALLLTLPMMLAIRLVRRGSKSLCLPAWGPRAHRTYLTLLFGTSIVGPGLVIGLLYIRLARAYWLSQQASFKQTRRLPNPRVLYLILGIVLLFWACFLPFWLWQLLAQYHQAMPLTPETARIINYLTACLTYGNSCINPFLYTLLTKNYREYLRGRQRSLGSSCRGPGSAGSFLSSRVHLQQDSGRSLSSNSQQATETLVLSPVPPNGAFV
Summary of the method: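 Cloned mouse urotensin (mUR2) receptor membranes from Perkin Elmer Biosignal were immobilized in FlashPlate microplates using a proprietary coating. Each well got 19.5 μl buffer, then 0.5 μl of DMSO, reference ligand, or compound. Adding 5 μl of [125I]-Urotensin II, diluted to 5× final concentration in binding buffer, started binding. Plates were sealed with TopSeal-A and incubated 1 hour at room temperature in the dark. Wells were counted for 30 seconds each on a TopCount after a 60-second delay, and percentage inhibition was calculated.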

Human melanocortin (MC5) = molecular target: T5, Human melanocortin (MC5) (Homo sapiens, UniProt P33032); assay: Radioligand binding, human melanocortin MC5 membranes, FlashPlate, [125I]-NDP-αMSH
T5 construct: purchased Perkin Elmer Biosignal
T5 sequence (P33032 whole entry): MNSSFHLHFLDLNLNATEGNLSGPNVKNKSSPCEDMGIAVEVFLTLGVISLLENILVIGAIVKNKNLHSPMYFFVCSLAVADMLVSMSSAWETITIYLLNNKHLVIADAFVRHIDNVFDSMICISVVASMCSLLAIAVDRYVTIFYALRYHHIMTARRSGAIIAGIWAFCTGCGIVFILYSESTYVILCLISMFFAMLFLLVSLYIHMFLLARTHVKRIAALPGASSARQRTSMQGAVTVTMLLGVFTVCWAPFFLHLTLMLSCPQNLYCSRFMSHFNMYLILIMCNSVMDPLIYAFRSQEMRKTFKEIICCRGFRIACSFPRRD
Summary of the method: as §1

[1] = molecular target: T6, Human melanin-concentrating hormone (MCH1) (Homo sapiens, UniProt Q99705); assay: Radioligand binding, human melanin-concentrating hormone MCH1 membranes, FlashPlate, [125I]-S36057
T6 construct: purchased Perkin Elmer Biosignal
T6 sequence (Q99705 whole entry): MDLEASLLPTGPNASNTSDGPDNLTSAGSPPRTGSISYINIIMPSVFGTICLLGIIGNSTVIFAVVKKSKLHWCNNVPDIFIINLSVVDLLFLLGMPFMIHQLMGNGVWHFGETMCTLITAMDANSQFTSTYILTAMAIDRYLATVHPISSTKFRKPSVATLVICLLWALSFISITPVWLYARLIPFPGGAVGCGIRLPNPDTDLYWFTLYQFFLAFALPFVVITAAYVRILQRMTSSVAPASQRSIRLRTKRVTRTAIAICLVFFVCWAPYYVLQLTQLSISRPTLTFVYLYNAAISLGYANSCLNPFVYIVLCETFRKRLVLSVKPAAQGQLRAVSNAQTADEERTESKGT
Summary of the method: as §1

Human opioid (ORL1) = molecular target: T7, Human opioid (ORL1) (Homo sapiens, UniProt P41146); assay: Radioligand binding, human opioid ORL1 membranes, FlashPlate, [125I]-Nociceptin
T7 construct: purchased Perkin Elmer Biosignal
T7 sequence (P41146 whole entry): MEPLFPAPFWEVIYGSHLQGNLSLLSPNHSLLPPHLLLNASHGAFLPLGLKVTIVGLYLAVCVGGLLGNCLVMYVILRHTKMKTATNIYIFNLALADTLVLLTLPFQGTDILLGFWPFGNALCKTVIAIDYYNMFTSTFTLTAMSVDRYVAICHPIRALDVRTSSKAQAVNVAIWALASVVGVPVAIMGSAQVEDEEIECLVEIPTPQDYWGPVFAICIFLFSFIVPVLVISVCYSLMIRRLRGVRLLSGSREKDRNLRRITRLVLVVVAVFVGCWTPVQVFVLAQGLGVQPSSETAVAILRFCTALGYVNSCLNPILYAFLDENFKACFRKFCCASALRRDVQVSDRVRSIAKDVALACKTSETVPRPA
Summary of the method: as §1

Human neurokinin (NK1) = molecular target: T8, Human neurokinin (NK1) (Homo sapiens, UniProt P25103); assay: Radioligand binding, human neurokinin NK1 membranes, filtration, [125I]-Substance P
T8 construct: purchased Perkin Elmer Biosignal
T8 sequence (P25103 whole entry): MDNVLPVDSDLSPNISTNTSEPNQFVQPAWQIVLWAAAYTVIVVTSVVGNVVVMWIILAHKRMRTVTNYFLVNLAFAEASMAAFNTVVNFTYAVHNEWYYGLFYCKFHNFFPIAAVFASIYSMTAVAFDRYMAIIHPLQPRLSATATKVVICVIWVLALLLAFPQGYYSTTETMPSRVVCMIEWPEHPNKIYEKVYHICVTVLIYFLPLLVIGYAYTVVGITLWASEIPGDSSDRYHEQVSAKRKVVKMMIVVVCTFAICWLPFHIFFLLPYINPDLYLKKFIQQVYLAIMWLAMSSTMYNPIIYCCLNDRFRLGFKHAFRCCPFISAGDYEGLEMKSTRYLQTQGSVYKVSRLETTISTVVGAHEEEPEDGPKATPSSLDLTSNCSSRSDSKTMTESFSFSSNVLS
Summary of the method: (§2)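 Percent inhibition of radioligand binding measured on recombinant human membranes: NK1 with [125I]-Substance P, KOP with [3H]-Diprenorphine. Incubation 1 h at room temperature, then harvest onto 0.3% PEI-soaked filters, cold Tris-HCl pH 7.4 washes and scintillation counting; non-specific binding from reference ligand wells.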

[2] = molecular target: T9, Human neuropeptide Y (NPY-Y1) (Homo sapiens, UniProt P25929); assay: Radioligand binding, human neuropeptide Y NPY-Y1 membranes, FlashPlate, [125I]-PYY
T9 construct: purchased Perkin Elmer Biosignal
T9 sequence (P25929 1-384): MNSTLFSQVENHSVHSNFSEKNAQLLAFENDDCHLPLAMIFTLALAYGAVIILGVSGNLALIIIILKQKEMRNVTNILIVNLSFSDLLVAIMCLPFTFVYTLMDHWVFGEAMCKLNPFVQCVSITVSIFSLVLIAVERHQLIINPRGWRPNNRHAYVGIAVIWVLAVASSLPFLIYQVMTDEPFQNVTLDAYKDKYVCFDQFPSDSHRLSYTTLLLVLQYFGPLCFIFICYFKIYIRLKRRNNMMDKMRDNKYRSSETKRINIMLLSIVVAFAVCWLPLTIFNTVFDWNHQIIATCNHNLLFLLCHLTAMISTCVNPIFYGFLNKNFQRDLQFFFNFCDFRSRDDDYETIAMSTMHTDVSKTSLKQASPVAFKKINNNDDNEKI
Summary of the method: as §1

Human δ-opioid (DOP) = molecular target: T10, Human δ-opioid (DOP) (Homo sapiens, UniProt P41143); assay: Radioligand binding, human δ-opioid (DOP) membranes, FlashPlate, [3H]-Bremazocine
T10 construct: purchased Perkin Elmer Biosignal
T10 sequence (P41143 whole entry): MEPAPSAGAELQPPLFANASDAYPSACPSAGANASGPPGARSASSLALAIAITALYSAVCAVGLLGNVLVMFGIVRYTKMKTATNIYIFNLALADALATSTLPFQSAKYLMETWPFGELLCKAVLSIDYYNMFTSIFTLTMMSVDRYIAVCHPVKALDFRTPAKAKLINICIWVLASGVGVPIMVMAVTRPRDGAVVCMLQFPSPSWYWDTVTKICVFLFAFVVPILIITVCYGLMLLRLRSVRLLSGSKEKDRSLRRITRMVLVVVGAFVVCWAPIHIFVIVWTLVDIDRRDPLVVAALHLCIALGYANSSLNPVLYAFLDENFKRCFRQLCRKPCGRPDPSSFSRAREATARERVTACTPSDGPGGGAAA
Summary of the method: as §1

Human κ-Opioid (KOP) = molecular target: T11, Human κ-Opioid (KOP) (Homo sapiens, UniProt P41145); assay: Radioligand binding, human κ-opioid (KOP) membranes, filtration, [3H]-Diprenorphine
T11 construct: purchased Perkin Elmer Biosignal
T11 sequence (P41145 whole entry): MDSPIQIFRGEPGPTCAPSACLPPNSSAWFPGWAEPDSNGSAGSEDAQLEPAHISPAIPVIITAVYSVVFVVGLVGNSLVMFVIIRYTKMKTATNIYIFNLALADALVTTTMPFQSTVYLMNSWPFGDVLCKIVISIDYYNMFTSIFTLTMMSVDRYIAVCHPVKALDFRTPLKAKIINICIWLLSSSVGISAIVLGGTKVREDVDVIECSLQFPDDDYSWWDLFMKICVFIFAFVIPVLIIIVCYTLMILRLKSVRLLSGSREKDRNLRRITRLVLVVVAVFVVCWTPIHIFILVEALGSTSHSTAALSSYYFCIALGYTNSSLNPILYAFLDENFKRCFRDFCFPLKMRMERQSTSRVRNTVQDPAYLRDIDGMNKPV
Summary of the method: as §2

T1 sequence (P32245 whole entry): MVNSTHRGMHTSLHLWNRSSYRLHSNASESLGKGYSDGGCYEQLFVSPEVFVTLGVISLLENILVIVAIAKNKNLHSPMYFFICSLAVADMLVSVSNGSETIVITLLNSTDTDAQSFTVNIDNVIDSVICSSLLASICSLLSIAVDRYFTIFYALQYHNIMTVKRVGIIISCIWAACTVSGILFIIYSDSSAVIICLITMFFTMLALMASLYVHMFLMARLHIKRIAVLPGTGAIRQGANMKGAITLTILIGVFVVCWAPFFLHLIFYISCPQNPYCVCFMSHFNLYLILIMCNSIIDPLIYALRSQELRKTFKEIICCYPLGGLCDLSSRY

With `COC[C@H]1OC(OCCc2ccccc2)[C@H](NC(=O)CCNC(=N)N)[C@@H](OCc2ccc3ccccc3c2)[C@@H]1O` (some centres unmarked) [compound 45] the “A4 radioligand binding inhibition” value (Human Melanocortin (MC4); human melanocortin MC4 membranes) was “+ (“+” indicates greater than 50% inhibition at 10 μM)”, the “A7 radioligand binding inhibition” value (Human μ-opioid (MOP); human μ-opioid (MOP) membranes) was “− (“−” indicates less than 50% inhibition at 10 μM)” and the “A3 radioligand binding inhibition” value (Human Melanocortin (MC3); human melanocortin MC3 membranes) was “− (“−” indicates less than 50% inhibition at 10 μM)”. The “A11 radioligand binding inhibition” value (Mouse urotensin (mUR2); mouse urotensin mUR2 membranes) was “− (“−” indicates less than 50% inhibition at 10 μM)”, the “A5 radioligand binding inhibition” value (Human melanocortin (MC5); human melanocortin MC5 membranes) was “− (“−” indicates less than 50% inhibition at 10 μM)” and the “A6 radioligand binding inhibition” value ([1]; human MCH1 membranes) was “− (“−” indicates less than 50% inhibition at 10 μM)”. The “A10 radioligand binding inhibition” value (Human opioid (ORL1); human ORL1 membranes) was “− (“−” indicates less than 50% inhibition at 10 μM)”, the “A8 radioligand binding inhibition” value (Human neurokinin (NK1); human neurokinin NK1 membranes) was “+ (“+” indicates greater than 50% inhibition at 10 μM)” and the “A9 radioligand binding inhibition” value ([2]; human NPY-Y1 membranes) was “− (“−” indicates less than 50% inhibition at 10 μM)”. For the same compound, the “A1 radioligand binding inhibition” value (Human δ-opioid (DOP); human δ-opioid (DOP) membranes) was “− (“−” indicates less than 50% inhibition at 10 μM)” and the “A2 radioligand binding inhibition” value (Human κ-Opioid (KOP); human κ-opioid (KOP) membranes) was “− (“−” indicates less than 50% inhibition at 10 μM)”.

For `CO[C@H]1[C@H](O)[C@@H](COCc2ccc(-c3ccccc3)cc2)OC(OCc2cccc(O)c2)[C@@H]1NC(=O)CCCN` (some centres unmarked) [compound 164], the “A4 radioligand binding, percentage inhibition” value (Human Melanocortin (MC4); [125I]-NDP-αMSH) was “+ (“+” indicates greater than 50% inhibition at 10 μM)”, the “A7 radioligand binding, percentage inhibition” value (Human μ-opioid (MOP); [3H]-Naloxone) was “− (“−” indicates less than 50% inhibition at 10 μM)” and the “A3 radioligand binding, percentage inhibition” value (Human Melanocortin (MC3); [125I]-NDP-αMSH) was “− (“−” indicates less than 50% inhibition at 10 μM)”. The “A11 radioligand binding, percentage inhibition” value (Mouse urotensin (mUR2); [125I]-Urotensin II) was “− (“−” indicates less than 50% inhibition at 10 μM)”, the “A5 radioligand binding, percentage inhibition” value (Human melanocortin (MC5); [125I]-NDP-αMSH) was “− (“−” indicates less than 50% inhibition at 10 μM)” and the “A6 radioligand binding, percentage inhibition” value ([1]; [125I]-S36057) was “− (“−” indicates less than 50% inhibition at 10 μM)”. For the same compound, the “A10 radioligand binding, percentage inhibition” value (Human opioid (ORL1); [125I]-Nociceptin) was “− (“−” indicates less than 50% inhibition at 10 μM)”, the “A8 radioligand binding, percentage inhibition” value (Human neurokinin (NK1); [125I]-Substance P) was “+ (“+” indicates greater than 50% inhibition at 10 μM)” and the “A9 radioligand binding, percentage inhibition” value ([2]; [125I]-PYY) was “− (“−” indicates less than 50% inhibition at 10 μM)”. The “A1 radioligand binding, percentage inhibition” value (Human δ-opioid (DOP); [3H]-Bremazocine) was “− (“−” indicates less than 50% inhibition at 10 μM)” and the “A2 radioligand binding, percentage inhibition” value (Human κ-Opioid (KOP); [3H]-Diprenorphine) was “− (“−” indicates less than 50% inhibition at 10 μM)”.

In the case of `NCCC(=O)NC1C(OCc2ccc3ccccc3c2)OC(COCc2ccc(Cl)cc2)C(O)C1OCc1ccccc1` (single isomer, unassigned) [compound 452], the “A4: inhibition of radioligand binding” value (Human Melanocortin (MC4); [125I]-NDP-αMSH, human MC4 membranes) is reported as “+ (“+” indicates greater than 50% inhibition at 10 μM)”, the “A7: inhibition of radioligand binding” value (Human μ-opioid (MOP); [3H]-Naloxone, human MOP membranes) is reported as “− (“−” indicates less than 50% inhibition at 10 μM)” and the “A3: inhibition of radioligand binding” value (Human Melanocortin (MC3); [125I]-NDP-αMSH, human MC3 membranes, 10 µM) is reported as “− (“−” indicates less than 50% inhibition at 10 μM)”. For the same compound, the “A11: inhibition of radioligand binding” value (Mouse urotensin (mUR2); [125I]-Urotensin II, mouse mUR2 membranes) was “− (“−” indicates less than 50% inhibition at 10 μM)”, the “A5: inhibition of radioligand binding” value (Human melanocortin (MC5); [125I]-NDP-αMSH, human MC5 membranes) was “+ (“+” indicates greater than 50% inhibition at 10 μM)” and the “A6: inhibition of radioligand binding” value ([1]; [125I]-S36057, human MCH1 membranes, 10 µM) was “− (“−” indicates less than 50% inhibition at 10 μM)”. The “A10: inhibition of radioligand binding” value (Human opioid (ORL1); [125I]-Nociceptin, human ORL1 membranes, 10 µM) was “− (“−” indicates less than 50% inhibition at 10 μM)”, the “A8: inhibition of radioligand binding” value (Human neurokinin (NK1); [125I]-Substance P, human NK1 membranes) was “+ (“+” indicates greater than 50% inhibition at 10 μM)” and the “A9: inhibition of radioligand binding” value ([2]; [125I]-PYY, human NPY-Y1 membranes) was “− (“−” indicates less than 50% inhibition at 10 μM)”. The “A1: inhibition of radioligand binding” value (Human δ-opioid (DOP); [3H]-Bremazocine, human DOP membranes) was “− (“−” indicates less than 50% inhibition at 10 μM)” and the “A2: inhibition of radioligand binding” value (Human κ-Opioid (KOP); [3H]-Diprenorphine, human KOP membranes) was “− (“−” indicates less than 50% inhibition at 10 μM)”.

For `CSC1OC(COCc2ccc(Cl)cc2)C(O)C(OCc2ccccc2)C1NC(=O)CCNC(=N)N` (centres unmarked) [compound 254], the “A4: inhibition of radioligand binding” value (Human Melanocortin (MC4); [125I]-NDP-αMSH, FlashPlate) was “− (“−” indicates less than 50% inhibition at 10 μM)”, the “A7: inhibition of radioligand binding” value (Human μ-opioid (MOP); [3H]-Naloxone, FlashPlate) was “− (“−” indicates less than 50% inhibition at 10 μM)” and the “A3: inhibition of radioligand binding” value (Human Melanocortin (MC3); [125I]-NDP-αMSH, FlashPlate) was “− (“−” indicates less than 50% inhibition at 10 μM)”. The “A11: inhibition of radioligand binding” value (Mouse urotensin (mUR2); [125I]-Urotensin II, FlashPlate) was “− (“−” indicates less than 50% inhibition at 10 μM)”, the “A5: inhibition of radioligand binding” value (Human melanocortin (MC5); [125I]-NDP-αMSH, FlashPlate) was “− (“−” indicates less than 50% inhibition at 10 μM)” and the “A6: inhibition of radioligand binding” value ([1]; [125I]-S36057, FlashPlate) was “− (“−” indicates less than 50% inhibition at 10 μM)”. For the same compound, the “A10: inhibition of radioligand binding” value (Human opioid (ORL1); [125I]-Nociceptin, FlashPlate) was “− (“−” indicates less than 50% inhibition at 10 μM)”, the “A8: inhibition of radioligand binding” value (Human neurokinin (NK1); [125I]-Substance P, filtration) was “+ (“+” indicates greater than 50% inhibition at 10 μM)” and the “A9: inhibition of radioligand binding” value ([2]; [125I]-PYY, FlashPlate) was “− (“−” indicates less than 50% inhibition at 10 μM)”. For the same compound, the “A1: inhibition of radioligand binding” value (Human δ-opioid (DOP); [3H]-Bremazocine, FlashPlate) was “− (“−” indicates less than 50% inhibition at 10 μM)” and the “A2: inhibition of radioligand binding” value (Human κ-Opioid (KOP); [3H]-Diprenorphine, filtration) was “− (“−” indicates less than 50% inhibition at 10 μM)”.
